These results are taken from patent US20110160167A1, “Steroid Derivatives Acting As Glucocorticosteroid Receptor Agonists” (AstraZeneca AB, priority 2007, published 2011).

By pIC50 is commonly meant the negative decadic logarithm of the IC50, by convention in mol/L.

In this assay the target is T1, recombinant human GR (Homo sapiens, UniProt P04150).
T1 construct: purchased Panvera/Invitrogen P2812 (kit P2893)
T1 sequence (P04150 1-777): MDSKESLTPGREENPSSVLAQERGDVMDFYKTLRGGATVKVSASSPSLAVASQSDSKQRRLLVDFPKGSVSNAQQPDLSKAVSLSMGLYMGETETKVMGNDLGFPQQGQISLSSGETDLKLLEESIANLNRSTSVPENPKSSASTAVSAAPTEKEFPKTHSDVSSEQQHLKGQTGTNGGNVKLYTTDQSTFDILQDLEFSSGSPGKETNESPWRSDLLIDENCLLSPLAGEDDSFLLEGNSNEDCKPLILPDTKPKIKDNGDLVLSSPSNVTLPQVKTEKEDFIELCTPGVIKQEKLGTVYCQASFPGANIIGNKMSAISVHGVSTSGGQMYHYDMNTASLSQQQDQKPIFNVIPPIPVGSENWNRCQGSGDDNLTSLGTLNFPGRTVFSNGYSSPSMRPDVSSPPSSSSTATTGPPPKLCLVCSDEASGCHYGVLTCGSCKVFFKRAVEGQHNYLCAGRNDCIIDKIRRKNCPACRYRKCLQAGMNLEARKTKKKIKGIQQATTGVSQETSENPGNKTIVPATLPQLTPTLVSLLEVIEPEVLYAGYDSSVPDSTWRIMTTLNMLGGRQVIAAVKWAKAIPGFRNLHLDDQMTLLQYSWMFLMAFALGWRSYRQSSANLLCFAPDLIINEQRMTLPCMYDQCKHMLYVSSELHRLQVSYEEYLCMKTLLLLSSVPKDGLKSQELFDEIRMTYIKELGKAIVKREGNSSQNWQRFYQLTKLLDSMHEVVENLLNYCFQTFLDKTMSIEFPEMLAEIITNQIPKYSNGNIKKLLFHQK
The experiment in a line: Human Glucocorticoid Receptor (GR) Assay (fluorescence polarization, Panvera/Invitrogen kit). The note with it: GS Red tracer, 2 hours at room temperature, 100% control 10 μM Dexamethasone, read-out: Inhibition of GR binding, IC50. The procedure:
Human Glucocorticoid Receptor (GR) Assay The assay is based on a commercial kit from Panvera/Invitrogen (Part number P2893). The assay technology is fluorescence polarization. The kit utilises recombinant human GR (Panvera, Part number P2812), a Fluoromone™ labelled tracer (GS Red, Panvera, Part number P2894) and a Stabilizing Peptide 10× (Panvera, Part number P2815). The GR and Stabilizing Peptide reagents are stored at −70° C. while the GS Red is stored at −20° C. Also included in the kit are 1M DTT (Panvera, Part number P2325, stored at −20° C.) and GR Screening buffer 10× (Panvera, Part number P2814, stored at −70° C. initially but once thawed stored at room temperature). Avoid repeated freeze/thaws for all reagents. The GR Screening buffer 10× comprises 100 mM potassium phosphate, 200 mM sodium molybdate, 1 mM EDTA and 20% DMSO. Test compounds (1 μL) and controls (1 μL) in 100% DMSO were added to black polystyrene 384-well plates (Greiner low volume black flat-bottom, part number 784076). 0% control was 100% DMSO and 100% control was 10 μM Dexamethasone. Background solution (8 μL; assay buffer 10×, Stabilizing Peptide, DTT and ice cold MQ water) was added to the background wells. GS Red solution (7 μL; assay buffer 10×, Stabilizing Peptide, DTT, GS Red and ice cold water) was added to all wells except background wells. GR solution (7 μL; assay buffer 10×, Stabilizing Peptide, DTT, GR and ice cold water) was added to all wells. The plate was sealed and incubated in a dark at room temperature for 2 hours. The plate was read in an Analyst plate reader (LJL Biosystems/Molecular Devices Corporation) or other similar plate reader capable of recording fluorescence polarization (excitation wavelength 530 nm, emission wavelength 590 nm and a dichroic mirror at 561 nm).
In general terms: Polarisation of emitted light reports the rotation of a fluorescent probe.

pIC50: −log10 of the molar value.

As for `CCC[C@@H]1O[C@@H]2C[C@H]3[C@@H]4CCC5=Cc6c(cnn6-c6ccc(F)c(CN7CCSCC7)c6)C[C@]5(C)[C@H]4[C@@H](O)C[C@]3(C)[C@]2(C(=O)CO)O1` [Example 7, 1-[(4aR,4bS,5S,6aS,6bS, 8R,9aR,10aS,10bS)-1-[4-fluoro-3-(thiomorpholin-4-ylmethyl)phenyl]-5-hydroxy-4a,6a-dimethyl-8-propyl-4,4a,4b,5,6,6a,9a,10, 10a,10b,11,12-dodecahydro[1,3]dioxolo [3′,4′]cyclopenta [1′,2′:5,6]naphtho[1,2-f]indazol-6b(1H)-yl]-2-hydroxyethanone trifluoroacetic acid], the negative-log IC50 (pIC50) is 7.92.

`CCC[C@@H]1O[C@@H]2C[C@H]3[C@@H]4CCC5=Cc6c(cnn6-c6ccc(F)c(C(=O)OC)c6)C[C@]5(C)[C@H]4[C@@H](O)C[C@]3(C)[C@]2(C(=O)CO)O1` [Example 22, Methyl 2-fluoro-5-[(4aR,4bS,5S,6aS,6bS,8R,9aR,10aS,10bS)-6b-glycoloyl-5-hydroxy-4a,6a-dimethyl-8-propyl-4a,4b,5,6,6a,6b,9a,10,10a,10b,11,12-dodecahydro[1,3]dioxolo[3′,4′]cyclopenta[1′,2′:5,6]naphtho[1,2-f]indazol-1(4H)-yl]benzoate]: the pIC50 is 8.23.

`CCC[C@H]1O[C@@H]2C[C@H]3[C@@H]4CCC5=Cc6c(cnn6-c6ccc(F)c(C(=O)OC)c6)C[C@]5(C)[C@H]4[C@@H](O)C[C@]3(C)[C@]2(C(=O)CO)O1` [Example 23, Methyl 2-fluoro-5-[(4aR,4bS,5S,6aS,6bS,8S,9aR,10aS,10bS)-6b-glycoloyl-5-hydroxy-4a,6a-dimethyl-8-propyl-4a,4b,5,6,6a,6b,9a,10,10a,10b,11,12-dodecahydro[1,3]dioxolo[3′,4′]cyclopenta[1′,2′:5,6]naphtho[1,2-f]indazol-1(4H)-yl]benzoate]: the pIC50 is 8.23.

On to `CCC[C@@H]1OC2C[C@H]3[C@@H]4CCC5=Cc6c(cnn6-c6ccc(F)c(CN(CC)CC)c6)C[C@]5(C)[C@H]4[C@@H](O)C[C@]3(C)[C@]2(C(=O)CO)O1` (stereo partly drawn) [Example 6, 1-[(4aR,4bS,5S,6aS,6bS, 8R,9aR,10aS,10bS)-1-{3-[(diethylamino)methyl]-4-fluorophenyl}-5-hydroxy-4a,6a-dimethyl-8-propyl-4,4a,4b,5,6,6a,9a,10, 10a,10b,11,12-dodecahydro[1,3]dioxolo [3′,4′]cyclopenta [1′,2′:5,6]naphtho[1,2-f]indazol-6b(1H)-yl]-2-hydroxyethanone], for which the negative-log IC50 (pIC50) is 7.14.

As for `CCC[C@H]1O[C@@H]2C[C@H]3[C@@H]4CCC5=Cc6c(cnn6-c6ccc(F)c(CN7CCOCC7)c6)C[C@]5(C)[C@H]4[C@@H](O)C[C@]3(C)[C@]2(C(=O)CO)O1` [Example 2], the negative logarithm of the IC50 (pIC50) is 8.06.

Take `CCC[C@H]1O[C@@H]2C[C@H]3[C@@H]4CCC5=Cc6c(cnn6-c6ccc(F)c(CN7CCN(C)CC7)c6)C[C@]5(C)[C@H]4[C@@H](O)C[C@]3(C)[C@]2(C(=O)CO)O1` [Example 5, 1-[(4aR,4bS,5S,6aS,6bS, 8S,9aR,10aS,10bS)-1-{4-fluoro-3-[(4-methylpiperazin-1-yl)methyl]phenyl}-5-hydroxy-4a,6a-dimethyl-8-propyl-4,4a,4b,5,6,6a,9a,10, 10a,10b,11,12-dodecahydro[1,3]dioxolo [3′,4′]cyclopenta [1′,2′:5,6]naphtho[1,2-f]indazol-6b(1H)-yl]-2-hydroxyethanone trifluoroacetic acid]: the pIC50 is 7.11.

As for `CC1(C)O[C@@H]2C[C@H]3[C@@H]4CCC5=Cc6c(cnn6-c6ccc(F)c(CO)c6)C[C@]5(C)[C@H]4[C@@H](O)C[C@]3(C)[C@]2(C(=O)CO)O1` [Example 21, 1-[(4aR,4bS,5S,6aS,6bS,9aR,10aS,10bS)-1-[4-Fluoro-3-(hydroxymethyl)phenyl]-5-hydroxy-4a,6a,8,8-tetramethyl-4,4a,4b,5,6,6a,9a,10,10a,10b,11,12-dodecahydro[1,3]dioxolo[3′,4′]cyclopenta[1′,2′:5,6]naphtho[1,2-f]indazol-6b(1H)-yl]-2-hydroxyethanone], the pIC50 was 8.26.

On to `CCC[C@@H]1O[C@@H]2C[C@H]3[C@@H]4CCC5=Cc6c(cnn6-c6ccc(F)c(CN7CCCC7)c6)C[C@]5(C)[C@H]4[C@@H](O)C[C@]3(C)[C@]2(C(=O)CO)O1` [Example 3, 1-[(4aR,4bS,5S,6aS,6bS, 8R,9aR,10aS,10bS)-1-[4-fluoro-3-(pyrrolidin-1-ylmethyl)phenyl]-5-hydroxy-4a,6a-dimethyl-8-propyl-4,4a,4b,5,6,6a,9a,10, 10a,10b,11,12-dodecahydro[1,3]dioxolo [3′,4′]cyclopenta [1′,2′:5,6]naphtho[1,2-f]indazol-6b(1H)-yl]-2-hydroxyethanone], for which the negative-log IC50 (pIC50) is 7.43.

As for `CCC[C@H]1O[C@@H]2C[C@H]3[C@@H]4CCC5=Cc6c(cnn6-c6ccc(F)c(CN7CCC(O)CC7)c6)C[C@]5(C)[C@H]4[C@@H](O)C[C@]3(C)[C@]2(C(=O)CO)O1` [Example 10, 1-[(4aR,4bS,5S,6aS,6bS, 8S,9aR,10aS,10bS)-1-{4-fluoro-3-[(4-hydroxypiperidin-1-yl)methyl]phenyl}-5-hydroxy-4a,6a-dimethyl-8-propyl-4,4a,4b,5,6,6a,9a,10, 10a,10b,11,12-dodecahydro[1,3]dioxolo [3′,4′]cyclopenta [1′,2′:5,6]naphtho[1,2-f]indazol-6b(1H)-yl]-2-hydroxyethanone trifluoroacetic acid], the pIC50 is 7.17.

In the case of `CCC[C@H]1O[C@@H]2C[C@H]3[C@@H]4CCC5=Cc6c(cnn6-c6ccc(F)c(CO)c6)C[C@]5(C)[C@H]4[C@@H](O)C[C@]3(C)[C@]2(C(=O)CO)O1` [Example 17, 1-[(4aR,4bS,5S,6aS,6bS,8S,9aR,10aS,10bS)-1-[4-Fluoro-3-(hydroxymethyl)phenyl]-5-hydroxy-4a,6a-dimethyl-8-propyl-4,4a,4b,5,6,6a,9a,10,10a,10b,11,12-dodecahydro[1,3]dioxolo[3′,4′]cyclopenta[1′,2′:5,6]naphtho[1,2-f]indazol-6b(1H)-yl]-2-hydroxyethanone], the negative logarithm of the IC50 (pIC50) is 8.18.

`CCC[C@H]1O[C@@H]2C[C@H]3[C@@H]4CCC5=Cc6c(cnn6-c6ccc(F)c(CN7CCC(CO)CC7)c6)C[C@]5(C)[C@H]4[C@@H](O)C[C@]3(C)[C@]2(C(=O)CO)O1` [Example 14, 1-[(4aR,4bS,5S,6aS,6bS, 8S,9aR,10aS,10bS)-1-(4-fluoro-3-{[4-(hydroxymethyl)-piperidin-1-yl]methyl}phenyl)-5-hydroxy-4a,6a-dimethyl-8-propyl-4,4a,4b,5,6,6a,9a,10, 10a,10b,11,12-dodecahydro[1,3]dioxolo [3′,4′]cyclopenta [1′,2′:5,6]naphtho[1,2-f]indazol-6b(1H)-yl]-2-hydroxyethanone trifluoroacetic acid]: the pIC50 was 7.33.

With `CCC[C@@H]1O[C@@H]2C[C@H]3[C@@H]4CCC5=Cc6c(cnn6-c6ccc(F)cc6)C[C@]5(C)[C@H]4[C@@H](O)C[C@]3(C)[C@]2(C(=O)SCC#N)O1` [Example 25, (4aR,4bS,5S,6aS,6bS,8R,9aR,10aS,10bS)-6b-(cyanomethylthiocarbonyl)-1-(4-fluorophenyl)-5-hydroxy-4a,6a-dimethyl-8-propyl-4,4a,4b,5,6,6a,9a,10,10a,10b,11,12-dodecahydro[1,3]dioxolo[3′,4′]cyclopenta[1′,2′:5,6]naphtho[1,2-f]indazol], the pIC50 was 7.92.
